Data published in patent US9724416B2, “Composition for improving or promoting hair growth containing, as active ingredients, photosensitizer irradiated with light and peptide, and method using same” (GWANGJU INSTITUTE OF SCIENCE AND TECHNOLOGY, priority 2012, dated 2017).
Entries after “also recorded” stand apart in the source; their conditions may differ.

How the values were obtained:
C57BL/6N mouse [1] = assay: Hair growth promoting effects using a mouse (first test); type: in vivo; conditions: for hair growth amounts compared to the control group: FIGS. 7 and 8 (day 10, day 12); for hair growth promoting effects with the naked eye compared to the untreated group: day 5 after sample treatment; for hair growth promoting effects compared to the untreated group: day 8 after sample treatment (FIG. 6B); for hair growth levels: until day 3, compared across groups incl. untreated
Procedure: (§1) ALA and ALA-peptide which were major test materials of the present invention were dissolved in pure water to a concentration of […] (100 ppm) to be used.
A 7-week-old C57BL/6N mouse (Jungang Lab. Animal Inc., KOR) was used for this study, and hair of the mouse's back was completely removed using a wax at the age of 49 days to 51 days at which the C57BL/6N mouse enters […] for the second time. In order to verify hair growth promoting effects of the test materials, it was treated once a day for 24 days. More particularly, ALA and the ALA-peptide were sprayed 3 times before LED radiation, and the LED treated groups were verified after being treated for 5 minutes.

C57BL/6N mouse [2] = assay: Hair growth promoting effects using a mouse (second test); type: in vivo
Procedure: A 10-fold volume of primary distilled water was put into 100 g of Cimicifuga heracleifolia, Baikl skullcap, and Lance Asiabell dry matters, which were hot water extracted for 6 hours at 100° C. and were then filtered. The filtered extracts were pulverized through freeze-dried and then stored at 4° C. until used. The pulverized natural extracts were used in a mouse experiment at a concentration of 1 mg/ml.
as §1
A 7-week-old C57BL/6N mouse was used for this study, and hair of the mouse's back was completely removed using a wax at the age of 49 days to 51 days at which the C57BL/6N mouse enters […] for the second time. In order to verify hair growth promoting effects of the test materials, it was treated once a day for 24 days. More particularly, the ALA and ALA-peptide were sprayed 3 times before LED radiation, and the LED treated groups were verified after treated for 5 minutes.

Molecule	hair growth amounts compared to the control group (C57BL/6N mouse [1]; LED-Blue radiation)	hair growth promoting effects with the naked eye compared to the untreated group (C57BL/6N mouse [1]; LED-Blue radiation)	hair growth promoting effects compared to the untreated group (C57BL/6N mouse [1]; LED-Blue radiation)	hair growth promoting effects through continuous treatments (C57BL/6N mouse [1]; LED-Red radiation compared to LED-Blue radiation, FIGS. 9 to 14 (day 14 to day 24))	hair growth amounts compared to the control group (C57BL/6N mouse [1]; LED-Red radiation)	hair growth promoting effects with the naked eye compared to the untreated group (C57BL/6N mouse [1]; LED-Red radiation)	hair growth promoting effects compared to the untreated group (C57BL/6N mouse [1]; LED-Red radiation)	hair growth promoting effects compared to the untreated group (in words) (C57BL/6N mouse [2]; LED-Red radiation, day 9 after sample treatment)	hair growth amounts compared to the untreated group (C57BL/6N mouse [2]; LED-Red radiation, extracts 1 mg/ml)	hair growth levels compared to untreated group (C57BL/6N mouse [2]; without LED radiation, FIGS. 16 to 19 (day 0 to day 7))	hair loss phenomenon compared to other treated groups (C57BL/6N mouse [1]; LED-Blue radiation, day 30 of observation (FIG. 15))	hair growth levels (C57BL/6N mouse [1]; LED-Blue radiation)	hair growth levels (C57BL/6N mouse [1]; LED-Red radiation)
5-Aminolevulinic Acid (ALA)-Peptide (GHK) [ALA-peptide]	significant hair growth promoting effects	distinct differences	about 7 fold	more superior hair growth promoting effects than the LED-Blue+ALA-peptide treated group	significant hair growth promoting effects; also recorded: most superior hair growth promoting effect	distinct differences	about 10 fold	significant hair growth promoting effects	increasing effects in the significant hair growth amounts	little differences in hair growth levels	–	–	–
Cl.NCC(=O)CCC(=O)O [ALA, 5-aminolevulinic acid, reference compound]	–	–	–	–	–	–	–	–	–	–	considerable hair loss phenomenon	no differences in hair growth levels	no differences in hair growth levels
